Experimental data: US6737383B1, “Herbicidal oxadiazolidines” (priority 1999, dated 2004)

Columns and labels:
smallflower flatsedge = assay: Test B flood test smallflower flatsedge; format: in vivo, Cyperus difformis
How it was run: (§1)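 Plants were grown to the 2-leaf stage before treatment with test chemical, then held in a greenhouse for twelve to sixteen days. Injury was visually rated against untreated controls on a 0–10 scale, where 0 is no effect and 10 is complete control.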

pigweed = assay: Test B pre/postemergence pigweed; format: in vivo, Amaranthus retroflexus
How it was run: (§2)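 Test chemicals in a non-phytotoxic solvent mixture with surfactant were sprayed preemergence onto planted seeds and postemergence onto plants 2 to 18 cm tall (1- to 4-leaf stage). After twelve to sixteen days in a greenhouse, injury was visually rated against untreated controls from 0 (no effect) to 10 (complete control).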

surinam grass = assay: Test B pre/postemergence surinam grass; format: in vivo, Brachiaria decumbens
How it was run: as §2

wheat = assay: Test B pre/postemergence wheat; format: in vivo, Triticum aestivum
How it was run: as §2

bamyardgrass = assay: Test B flood test barnyardgrass; format: in vivo, Echinochloa crus-galli
How it was run: as §1

sugar beet = assay: Test B pre/postemergence sugar beet; format: in vivo, Beta vulgaris
How it was run: as §2

duck salad = assay: Test B flood test duck salad; format: in vivo, Heteranthera limosa
How it was run: as §1

giant foxtail = assay: Test B pre/postemergence giant foxtail; format: in vivo, Setaria faberii
How it was run: as §2

wild oat = assay: Test B pre/postemergence wild oat; format: in vivo, Avena fatua
How it was run: as §2

morningglory = assay: Test B pre/postemergence morningglory; format: in vivo, Ipomoea hederacea
How it was run: as §2

rape = assay: Test B pre/postemergence rape; format: in vivo, Brassica napus
How it was run: as §2

purple nutsedge = assay: Test B pre/postemergence purple nutsedge; format: in vivo, Cyperus rotundus
How it was run: as §2

corn = assay: Test B pre/postemergence corn; format: in vivo, Zea mays
How it was run: as §2

rice = assay: Test B flood test rice; format: in vivo, Oryza sativa
How it was run: as §1

crabgrass = assay: Test B pre/postemergence crabgrass; format: in vivo, Digitaria sanguinalis
How it was run: as §2

cocklebur = assay: Test B pre/postemergence cocklebur; format: in vivo, Xanthium strumarium
How it was run: as §2

[1] = Rate 62 g/ha, headed Pre-emergence (flood test species), scale 0 to 10 (0 no effect, 10 complete control)
[2] = Rate 125 g/ha, Pre-emergence, flood test species, scale 0 to 10 where 0 is no effect and 10 is complete control
[3] = Rate 250 g/ha, Pre-emergence, flood-test species, scale 0 to 10, 0 is no effect, 10 is complete control
[4] = Rate 500 g/ha, Pre-emergence, flood test species, scale 0 to 10 (0 no effect, 10 complete control)
[5] = Preemergence, Rate 62 g/ha, scale of 0 to 10 where 0 is no effect and 10 is complete control
[6] = Preemergence, Rate 250 g/ha, scale of 0 to 10 where 0 is no effect and 10 is complete control
[7] = Preemergence, Rate 500 g/ha, scale of 0 to 10 where 0 is no effect and 10 is complete control
[8] = Rate 62 g/ha, Postemergence, scale of 0 to 10 where 0 is no effect and 10 is complete control
[9] = Rate 125 g/ha, Postemergence, scale 0 to 10
[10] = Rate 125 g/ha, Preemergence, scale of 0 to 10 where 0 is no effect and 10 is complete control
[11] = Rate 500 g/ha, Postemergence, scale 0 to 10

CCOC(=O)C=CCn1c(=O)on(C(=O)N(c2ccc(F)cc2)C(C)C)c1=O [Compound 214]
2: Giant foxtail plant response rating (giant foxtail; [5]) | Morningglory plant response rating (morningglory; [8])
5: Crabgrass plant response rating (crabgrass; [11])
7: Morningglory plant response rating (morningglory; [11])
1: Plant response rating (0 to 10; 0 is no effect, 10 is complete control), Redroot pigweed (pigweed; Rate 250 g/ha, Postemergence) | Crabgrass plant response rating (crabgrass; [6]) | Crabgrass plant response rating (crabgrass; [8])
0: S. Flatsedge plant response rating (smallflower flatsedge; [1]) | S. Flatsedge plant response rating (smallflower flatsedge; [2]) | S. Flatsedge plant response rating (smallflower flatsedge; [3]) | S. Flatsedge plant response rating (smallflower flatsedge; [4]) | Redroot pigweed plant response rating (pigweed; [5]) | Redroot pigweed plant response rating (pigweed; [8]) | Redroot pigweed plant response rating (pigweed; [9]) | Redroot pigweed plant response rating (pigweed; [10]) | B. signalgrass plant response rating (surinam grass; [5]) | B. signalgrass plant response rating (surinam grass; Preemergence, Rate 250 g/ha, scale 0 to 10, 0 is no effect, 10 is complete control) | Plant response rating, B. signalgrass (surinam grass; [7]) | B. signalgrass plant response rating (surinam grass; [8]) | B. signalgrass plant response rating (surinam grass; Rate 125 g/ha, Postemergence, scale 0 (no effect) to 10 (complete control)) | B. signalgrass plant response rating (surinam grass; [10]) | Plant response rating (0 to 10; 0 is no effect, 10 is complete control), B. signalgrass (surinam grass; Rate 250 g/ha, Postemergence) | B. signalgrass plant response rating (surinam grass; Rate 500 g/ha, Postemergence, scale 0 to 10, 0 no effect, 10 complete control) | Wheat plant response rating (wheat; [5]) | Wheat plant response rating (wheat; [6]) | Plant response rating, Wheat (wheat; [7]) | Wheat plant response rating (wheat; [8]) | Wheat plant response rating (wheat; [9]) | Wheat plant response rating (wheat; [10]) | Barnyardgrass plant response rating (bamyardgrass; [1]) | Barnyardgrass plant response rating (bamyardgrass; [2]) | Barnyardgrass plant response rating (bamyardgrass; [3]) | Barnyardgrass plant response rating (bamyardgrass; [4]) | Sugarbeets plant response rating (sugar beet; [5]) | Sugarbeets plant response rating (sugar beet; [6]) | Plant response rating, Sugarbeets (sugar beet; [7]) | Sugarbeets plant response rating (sugar beet; [8]) | Sugarbeets plant response rating (sugar beet; [9]) | Sugarbeets plant response rating (sugar beet; [10]) | Plant response rating (0 to 10; 0 is no effect, 10 is complete control), Sugarbeets (sugar beet; Rate 250 g/ha, Postemergence) | Sugarbeets plant response rating (sugar beet; [11]) | Ducksalad plant response rating (duck salad; [1]) | Ducksalad plant response rating (duck salad; [2]) | Ducksalad plant response rating (duck salad; [3]) | Ducksalad plant response rating (duck salad; [4]) | Giant foxtail plant response rating (giant foxtail; [8]) | Giant foxtail plant response rating (giant foxtail; [9]) | Plant response rating (0 to 10; 0 is no effect, 10 is complete control), Giant foxtail (giant foxtail; Rate 250 g/ha, Postemergence) | Wild oats plant response rating (wild oat; [5]) | Wild oats plant response rating (wild oat; [6]) | Plant response rating, Wild oats (wild oat; [7]) | Wild oats plant response rating (wild oat; [8]) | Wild oats plant response rating (wild oat; [9]) | Wild oats plant response rating (wild oat; [10]) | Plant response rating (0 to 10; 0 is no effect, 10 is complete control), Wild oats (wild oat; Rate 250 g/ha, Postemergence) | Morningglory plant response rating (morningglory; [5]) | Morningglory plant response rating (morningglory; [6]) | Plant response rating, Morningglory (morningglory; [7]) | Morningglory plant response rating (morningglory; [10]) | Rape plant response rating (rape; [5]) | Rape plant response rating (rape; [6]) | Plant response rating, Rape (rape; [7]) | Rape plant response rating (rape; [8]) | Rape plant response rating (rape; [9]) | Rape plant response rating (rape; [10]) | Nutsedge plant response rating (purple nutsedge; [5]) | Nutsedge plant response rating (purple nutsedge; [8]) | Nutsedge plant response rating (purple nutsedge; [9]) | Plant response rating (0 to 10; 0 is no effect, 10 is complete control), Nutsedge (purple nutsedge; Rate 250 g/ha, Postemergence) | Nutsedge plant response rating (purple nutsedge; [11]) | Corn plant response rating (corn; [5]) | Corn plant response rating (corn; [6]) | Plant response rating, Corn (corn; [7]) | Corn plant response rating (corn; [8]) | Corn plant response rating (corn; [9]) | Corn plant response rating (corn; [10]) | Plant response rating (0 to 10; 0 is no effect, 10 is complete control), Corn (corn; Rate 250 g/ha, Postemergence) | Corn plant response rating (corn; [11]) | Rice plant response rating (rice; [1]) | Rice plant response rating (rice; [2]) | Rice plant response rating (rice; [3]) | Rice plant response rating (rice; [4]) | Crabgrass plant response rating (crabgrass; [5]) | Crabgrass plant response rating (crabgrass; [10]) | Cocklebur plant response rating (cocklebur; [5]) | Cocklebur plant response rating (cocklebur; [6]) | Plant response rating, Cocklebur (cocklebur; [7]) | Cocklebur plant response rating (cocklebur; [8]) | Cocklebur plant response rating (cocklebur; [9]) | Cocklebur plant response rating (cocklebur; [10]) | Plant response rating (0 to 10; 0 is no effect, 10 is complete control), Cocklebur (cocklebur; Rate 250 g/ha, Postemergence) | Cocklebur plant response rating (cocklebur; [11])
4: Giant foxtail plant response rating (giant foxtail; [11]) | Plant response rating, Crabgrass (crabgrass; [7])
3: Redroot pigweed plant response rating (pigweed; [11]) | Plant response rating (0 to 10; 0 is no effect, 10 is complete control), Wheat (wheat; Rate 250 g/ha, Postemergence) | Giant foxtail plant response rating (giant foxtail; [10]) | Morningglory plant response rating (morningglory; [9]) | Plant response rating (0 to 10; 0 is no effect, 10 is complete control), Rape (rape; Rate 250 g/ha, Postemergence) | Rape plant response rating (rape; [11]) | Crabgrass plant response rating (crabgrass; [9]) | Plant response rating (0 to 10; 0 is no effect, 10 is complete control), Crabgrass (crabgrass; Rate 250 g/ha, Postemergence)
9: Plant response rating, Redroot pigweed (pigweed; [7])
6: Redroot pigweed plant response rating (pigweed; [6]) | Giant foxtail plant response rating (giant foxtail; [6]) | Plant response rating, Giant foxtail (giant foxtail; [7]) | Plant response rating (0 to 10; 0 is no effect, 10 is complete control), Morningglory (morningglory; Rate 250 g/ha, Postemergence)
